# Data published in patent US7144586B2, “Compositions for preventing hormone induced adverse effects” (Lycored Natural Products Industries Ltd., priority 2000, dated 2006).
# “Also recorded” adds a separate entry of the source.
# How the values were obtained:
# [1] = tested on: rodent models (rat colon and oral carcinogenesis); settings: dietary administration; cited from earlier work
# [2] = tested on: ECC-1 endometrial cancer cells; experiment: ECC-1 endometrial cancer cell proliferation assay ([3H]thymidine incorporation); assay type: cell-based, human; settings: for genistein-induced cell proliferation: stimulated by genistein at 1 MM (FIG. 4); for cell proliferation ([3H]thymidine incorporation into DNA): 0.4 and 4 μM, after three days (FIG. 1, panel A); for inhibition of cell proliferation: higher, non-physiological concentrations (10 μM), after three days in culture (FIG. 1, panel A); for effect on endometrial cancer cell growth over the concentration range: increasing concentrations, low to high
# Method: (§1) Tetrahydrofuran (THF) containing 0.25% butylated hydroxytoluene was added to purified carotenoids as an antioxidant. Carotenoids were dissolved in THF at a concentration of 2 mMM and stored at −70 C. Immediately before use, stock solutions were thawed and added to the cell culture medium under nitrogen, followed by vigorous stirring. Precipitates formed were removed by filtration through Millex-HV filter (Millipore). Final carotenoid concentrations in the medium were determined by spectrophotometry after extraction in 2-propanol and n-hexane:dichloronomethane, as in U.S. Pat. No. 5,827,900.
# (§2) The human endometrial cancer (estrogen dependent) cell line ECC-1 was developed by Dr. P. G. Satyaswaroop, Pennslyvania State University, Pennsylvania, U.S.A, and generously provided to us by Dr. R. Oregan, Northwestern University, Chicago, Ill., U.S.A. Human mammary cancer cell lines MCF-7 (estrogen dependent) and MDA-231 (hormone independent) were obtained from the American Type Culture Collection (Rockville, Md.).
# (§3) Cells were cultured in DMEMM containing penicillin (100 U/ml), streptomycin (0.1 mg/ml)) nystatin (12.5 (g/ml), insulin (0.6 (g/ml), and 10% FCS. Cells were stripped of endogenous steroids according to the procedure of Vignon et al. (1987, Biochem. Biophys. Res. Comm., 146:1502–8) by successive passages in medium without phenol red containing 10% and then 3% of charcoal-stripped FCS. Cells were seeded into 96 multiwell plates (5,000 cells per well) in DMEMM containing 3% of charcoal-stripped FCS. After one day the medium was changed to one containing the solubilized carotenoid or THF alone. The medium was changed daily to ensure a continuous supply of carotenoid.
# (§4) After incubation, the number of cells and the rate of cell proliferation were estimated by the incorporation of [^3H]thymidine incorporation into cellular DNA, as described in U.S. Pat. No. 5,827,900. Cell growth was also measured by direct cell counting with a Coulter counter after trypsinization and dilution in Isotone-II (Coulter Electronics, Luton, England). A good correlation was found between the two methods.
# ECC-1 cells were incubated with increasing concentrations of the isoflavones genistein and daidzein, the two primary isoflavones in soy products, and with soy extract. Cell proliferation after three days was measured by [^3H]thymidine incorporation into DNA (FIG. 1, panel A).
# ECC-1 cells were also incubated with a single high concentration (40 μM) of each of genistein, daidzein and soy extract. Cell proliferation was assayed daily over the course of three days.
# (§5) The comparative effects of estradiol and genistein supplementation on the proliferation of the hormone-dependent cell lines MCF-7 mammary cancer and ECC-1 endometrial cancer were examined (FIG. 2).
# (§6) Cell cultures stimulated either by genistein or estradiol, as described above, were further supplemented with lycopene and assayed for cell proliferation after three days in culture.
# The ECC-1 hormone-dependent cell line was stimulated either by estradiol at 10 nM (FIG. 4, left panel) or by genistein at 1 MM (FIG. 4, panel B) and test cultures were additionally supplemented with various carotenoids.
# The hormone-dependent endometrial cancer cell line ECC-1 was stimulated either by estradiol at 10 nM (FIG. 5, left panel) or by genistein at 1 μM (FIG. 5, right panel) and test cultures were additionally supplemented with various concentrations of lycopene. […] The lowest lycopene concentration tested (0.9 μM) is in the physiological range found in human serum.
# [3] = tested on: estrogen receptor-positive human breast cancer cell lines; settings: approximately 0.1 to 2–3 μM; cited from earlier work
# [4] = tested on: estrogen receptor negative human breast cancer cell lines; settings: approximately 0.1 to 2–3 μM; cited from earlier work
# [5] = tested on: MCF-7 mammary cancer cells (estrogen dependent); experiment: MCF-7 mammary cancer cell proliferation assay ([3H]thymidine incorporation); assay type: cell-based, human; settings: for phytoestrogen-induced cell proliferation: genistein (4 (M))
# Method: as §1, §2, §3, §4, §5, §6
# Thus genistein not only stimulates hormone-dependent cancer cell proliferation, but IGF-I as well as other growth factors further augment this effect.
# Cell cultures supplemented as above were further supplemented with lycopene at 3 to 5 μM concentration.
# [6] = tested on: MDA-231 mammary cancer cells (hormone independent); experiment: MDA-231 mammary cancer cell proliferation assay ([3H]thymidine incorporation); assay type: cell-based, human
# Method: as §1, §2, §3
# as §4, with “methods. […]” for “methods.”
# [7] = single high concentration (40 μM), after one day of incubation (FIG. 1, panel B)
# [8] = lycopene at 3 to 5 μM, IGF-1 30 nM (FIG. 3)
# [9] = lycopene at 3 to 5 μM, three days in culture (FIG. 2)
# [10] = high, non-physiological carotenoid concentrations, about one order of magnitude greater than physiological (FIG. 6, panel B)
compound,measurement,setting,value
CC1=C(/C=C/C(C)=C/C=C/C(C)=C/C=C/C=C(C)/C=C/C=C(C)/C=C/C2=C(C)C(=O)[C@@H](O)CC2(C)C)C(C)(C)C[C@H](O)C1=O [astaxanthin],anti-tumorigenic effects in vivo,[1],anti-tumorigenic effects
same,genistein-induced cell proliferation,[2],effective inhibitors; also recorded: effectively inhibited
CC1=C(/C=C/C(C)=C/C=C/C(C)=C/C=C/C=C(C)/C=C/C=C(C)/C=C/C2=C(C)CCCC2(C)C)C(C)(C)CCC1 [beta-carotene],genistein-induced cell proliferation,[2],effective inhibitors; also recorded: effectively inhibited
COc1ccc(-c2coc3cc(O)cc(O)c3c2=O)cc1 [biochanin A],cell proliferation,[3],induce cell proliferation
same,cell proliferation,[4],not in estrogen receptor negative
O=c1oc2cc(O)ccc2c2oc3cc(O)ccc3c12 [counestrol],cell proliferation,[3],induce cell proliferation
same,cell proliferation,[4],not in estrogen receptor negative
"O=c1c(-c2ccc(O)cc2)coc2cc(O)ccc12 [daidzein, reference compound]",cell proliferation ([3H]thymidine incorporation into DNA),[2],significant increase in cell proliferation rate; also recorded: stimulated cell proliferation
same,inhibition of cell proliferation,[2],not
same,effect on endometrial cancer cell growth over the concentration range,[2],only stimulatory
same,cell proliferation,[2]; [7],significantly increases cell proliferation; also recorded: stimulated cell proliferation
"O=c1c(-c2ccc(O)cc2)coc2cc(O)cc(O)c12 [genistein, reference compound]",cell proliferation,[3],induce cell proliferation
same,cell proliferation,"[2]; 40 μM, by the second day in culture (FIG. 1, panel B)",inhibitory effects
same,cell proliferation ([3H]thymidine incorporation into DNA),[2],significant increase in cell proliferation rate; also recorded: stimulated cell proliferation
same,inhibition of cell proliferation,[2],inhibited cell proliferation
same,effect on endometrial cancer cell growth over the concentration range,[2],biphasic effects on proliferation
same,cell proliferation,[2]; [7],significantly increases cell proliferation; also recorded: stimulated cell proliferation
same,stimulatory effect of genistein in the presence of IGF-I,"[5]; genistein plus IGF-1 30 nM, compared to genistein only (FIG. 3, panel A)",significantly increases the cell proliferation rate; also recorded: further augmented
same,effect on proliferation over the concentration range,"[5]; stimulating at low, inhibiting at high concentrations (FIG. 2, panel A)",biphasic effects on proliferation
same,cell proliferation,[4],not in estrogen receptor negative
O=c1c(O)c(-c2ccc(O)cc2)oc2cc(O)cc(O)c12 [kaempferl],cell proliferation,[3],induce cell proliferation
same,cell proliferation,[4],not in estrogen receptor negative
O=c1cc(-c2ccc(O)c(O)c2)oc2cc(O)cc(O)c12 [luiolin],cell proliferation,[3],induce cell proliferation
same,cell proliferation,[4],not in estrogen receptor negative
CC(C)=CCC/C(C)=C/C=C/C(C)=C/C=C/C(C)=C/C=C/C=C(C)/C=C/C=C(C)/C=C/C=C(\C)CCC=C(C)C [lycopene],IGF stimulation of cell proliferation,[6]; [8],inhibits IGF stimulation
same,cell proliferation relative to controls,[6]; [8],reduced to levels less than that of controls
same,"estradiol-induced cell proliferation, dose dependence","[2]; estradiol at 10 nM, various lycopene concentrations, lowest 0.9 μM (FIG. 5)","inhibits, in a dose dependent manner; also recorded: effective in inhibiting"
same,"genistein-induced cell proliferation, dose dependence","[2]; genistein at 1 μM, various lycopene concentrations, lowest 0.9 μM (FIG. 5)","inhibits, in a dose dependent manner; also recorded: effective in inhibiting"
same,basal growth,[2]; [9],significantly inhibited
same,estradiol-induced growth,[2]; [9],significantly inhibited
same,genistein-induced growth,[2]; [9],substantially inhibited; also recorded: significantly inhibited
same,genistein-induced cell proliferation,[2],effective inhibitors; also recorded: effectively inhibited
same,phytoestrogen-induced cell proliferation,[5]; [10],effective in significantly inhibiting
same,phytoestrogen-induced cell proliferation,"[5]; low (physiological) concentrations: lycopene 0.4 μM, phytoene and phytofluene mixture 6 μM (FIG. 6, panel A)",do not significantly affect
same,basal growth,[5]; [9],significantly inhibited
same,estradiol-induced growth,[5]; [9],significantly inhibited
same,IGF stimulation of cell proliferation (IGF-1 and genistein),[5]; [8],inhibits the cell proliferation; also recorded: inhibits IGF stimulation
same,genistein-induced growth,"[5]; lycopene at 3 to 5 MM, three days in culture (FIG. 2)",substantially inhibited; also recorded: significantly inhibited
CC(C)=CCC/C(C)=C/CC/C(C)=C/CC/C(C)=C/C=C/C=C(\C)CC/C=C(\C)CC/C=C(\C)CCC=C(C)C [phytoene],genistein-induced cell proliferation,[2],effective inhibitors
same,phytoestrogen-induced cell proliferation,[5]; [10],effective in significantly inhibiting
IGF-1: Human recombinant IGF-1 purchased from GroPep,cell growth,"[6]; IGF-1 30 nM (FIG. 3, panel B)",significantly stimulates cell growth
same,cell growth,"[5]; IGF-1 30 nM (FIG. 3, panel A)",significantly stimulates cell growth
